Assay [1] deals with T1, BAM1 extracellular domain (Arabidopsis thaliana, UniProt O49545).
T1 construct: Drosophila BiP secretion signal peptide (N); StrepII (C, cleaved yes); 10xHis (C, cleaved yes); made in house; host or cells: Trichoplusia ni (strain Tnao38) insect cells, baculovirus (modified pFastBac)
T1 sequence (O49545 20-637): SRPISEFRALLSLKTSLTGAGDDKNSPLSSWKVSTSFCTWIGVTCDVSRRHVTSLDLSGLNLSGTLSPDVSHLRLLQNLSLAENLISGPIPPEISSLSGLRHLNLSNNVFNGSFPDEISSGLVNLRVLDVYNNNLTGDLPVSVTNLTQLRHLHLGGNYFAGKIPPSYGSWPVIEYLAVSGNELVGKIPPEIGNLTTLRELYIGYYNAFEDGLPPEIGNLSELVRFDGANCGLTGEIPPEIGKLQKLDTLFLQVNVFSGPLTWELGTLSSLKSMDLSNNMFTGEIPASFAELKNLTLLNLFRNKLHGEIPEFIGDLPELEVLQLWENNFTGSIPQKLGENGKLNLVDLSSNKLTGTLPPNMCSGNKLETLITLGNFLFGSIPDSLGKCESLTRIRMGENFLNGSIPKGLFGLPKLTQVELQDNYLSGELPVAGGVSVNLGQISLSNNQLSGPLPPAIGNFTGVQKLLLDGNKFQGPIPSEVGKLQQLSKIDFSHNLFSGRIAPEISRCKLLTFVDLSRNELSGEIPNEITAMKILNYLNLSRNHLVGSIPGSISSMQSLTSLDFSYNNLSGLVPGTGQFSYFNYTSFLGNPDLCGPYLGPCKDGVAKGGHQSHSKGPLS
Briefly: Grating-coupled interferometry (GCI) binding kinetics of CLE peptides versus the BAM1 ectodomain. As to conditions: for koff: pH 5, read-out: koff, dissociation rate constant; for kon: pH 5, read-out: kon, association rate constant. The source says: The coding sequence of BAM1 (residues 20 to 637) was synthesized (GeneArt) with codons optimized for expression in Trichoplusia ni and cloned in a modified pFastBac vector (Geneva Biotech), harboring the Drosophila BiP secretion signal peptide and a TEV (tobacco etch virus protease) cleavable C-terminal StrepII, 10× His tag and a noncleavable Avi-tag ([41], [42]). T. ni (strain Tnao38) ([43]) cells were infected with a multiplicity of infection (MOI) of 1 at a density of 2 × 10^6 cells mL^−1 and incubated 26 h at 28 °C and 48 h at 22 °C. The secreted protein was purified from the supernatant by Ni^2+ (HisTrap Excel; GE Healthcare; equilibrated in 50 mM KPi pH 7.6, 250 mM NaCl, 1 mM 2-mercaptoethanol) and StrepII (Strep-Tactin XT Superflow high affinity chromatography: IBA; equilibrated in 20 mM Tris pH 8.0, 250 mM NaCl, 1 mM ethylenediaminetetraacetic acid) affinity chromatography. The tag was cleaved with His-tagged TEV protease at 4 °C overnight and removed by Ni^2+ affinity chromatography. Proteins were then further purified by size-exclusion chromatography on a Superdex 200 increase 10/300 GL column (GE Healthcare), equilibrated in 20 mM sodium citrate pH 5.0, 250 mM NaCl.
BAM1 protein (20 µM) was biotinylated with biotin ligase BirA (2 µM) ([42]) for 1 h at 25 °C, in a volume of 200 µL; 25 mM Tris pH 8, 150 mM NaCl, 5 mM MgCl2, 2 mM 2-mercaptoethanol, 0.15 mM biotin, 2 mM ATP, and followed by size-exclusion chromatography to purify the biotinylated protein.
Grating-coupled interferometry (GCI) experiments were derived by the Creoptix WAVE system (Creoptix). All experiments were performed on 4PCP WAVE chips (quasiplanar polycarboxylate surface; Creoptix). Borate buffer (100 mM sodium borate pH 9.0, 1 M NaCl; Xantec) was used for chip conditioning and streptavidin (Sigma) was immobilized on the chip surface with standard amine coupling; 7 min activation [1:1 mix of 400 mM N-(3-dimethylaminopropyl)-N′-ethylcarbodiimide hydrochloride and 100 mM N-hydroxysuccinimide] (Xantec), followed by injection of streptavidin (30 µg mL^−1) in 10 mM sodium acetate pH 5.0 (Sigma) until the desired density was reached, passivation of the surface (0.5% bovine serum albumin [Roche] in 10 mM sodium acetate pH 5.0) and final quenching with 1 M ethanolamine pH 8.0 for 7 min (Xantec). Then, biotinylated BAM1 (80 µg mL^−1) was captured on the chip surface. All kinetic analyses were performed at 25 °C with a 1:2 dilution series from 100 nM for CLE9 or 10 µM for the other peptides in 20 mM citrate pH 5.0, 250 mM NaCl, 0.01% Tween 20. Blank injections were used for double referencing and a dimethyl sulfoxide (DMSO) calibration curve for bulk correction. Analysis and correction of the obtained data were performed using the Creoptix WAVE control software (correction applied: X and Y offset; DMSO calibration; double referencing). Mass transport binding models with bulk correction were used to fit all experiments.

Assay [2] relates to CYCD6;1 expression. As to the kind of experiment: CYCLIND6;1p::GFP reporter expression in roots after exogenous CLE peptide treatment. It is filed as in vivo, Arabidopsis. To be noted: Col-0 roots; 0.1 μM CLEp for 48 h from 3 dag, imaged 5 dag. The protocol:
Seeds were surface sterilized with 70% ethanol and 0.1% Triton X-100 for 10 min, rinsed three times with 70% ethanol, and plated onto 0.5× Murashige and Skoog (MS) (pH 5.7) (Research Products International) with 8 g/L Phytoagar (Research Products International) and stratified at 4 °C for 2 d. Following stratification, seeds were germinated in a continuous light growth chamber at 22 °C to 24 °C. For peptide-treated plants, sterilized seeds were stratified and germinated on 0.5× MS plates. At 3 d after germination (dag), seedlings were transferred to either 0.5× MS plates or 0.5× MS plates supplemented with 0.1 μM CLEp for 48 h. Roots were imaged 5 dag as described in the figure legends. All synthetic peptides (>90% purity, Biomatik) (SI Appendix, Table S1) were dissolved in sterile dH2O as recommended. For treatment with dexamethasone (Dex; Sigma), seedlings were stratified and germinated on 0.5× MS plates supplemented with 10 μM Dex for 3 d before imaging.
Laser scanning confocal microscopy of roots was performed using either a C-Apochromat 40×/1.20 W Korr objective on a Zeiss laser scanning microscopy (LSM) 710 or an EC Plan-Neofluar 40×/1.30 oil differential interference contrast (DIC) M27 objective on a Zeiss LSM 880. Roots were examined by staining with 10 μM propidium iodide (PI) (Sigma-Aldrich). For images in Figs. 2B and 4 A and C and SI Appendix, Figs. S1D and S2B, seedlings were fixed in 4% paraformaldehyde in phosphate-buffered saline (PBS) for 45 min, rinsed in PBS, and cleared in ClearSee solution ([38]) overnight. Fixed seedlings were incubated in 0.2% Calcofluor white (Sigma-Aldrich) for 30 min and transferred to fresh ClearSee solution 2 to 24 h before imaging. Laser line excitations and emissions are as follows: Calcofluor white (405 nm; 410 to 551 nm), GFP (488 nm; 492 to 551 nm), YFP (514 nm; 519 to 564 nm), mCherry (561 nm; 566 to 606 nm), and PI (561 nm; 566 to 682 nm). Histological sectioning of Col-0 and bam1/2/3 roots 6 dag were prepared as previously described ([39]).

For assay [3], the target named is T2, BAM1 extracellular domain (BARELY ANY MERISTEM1 receptor kinase, residues 20 to 637) (Arabidopsis, UniProt O49545 20-637, biotin (by biotin ligase BirA)).
T2 chain: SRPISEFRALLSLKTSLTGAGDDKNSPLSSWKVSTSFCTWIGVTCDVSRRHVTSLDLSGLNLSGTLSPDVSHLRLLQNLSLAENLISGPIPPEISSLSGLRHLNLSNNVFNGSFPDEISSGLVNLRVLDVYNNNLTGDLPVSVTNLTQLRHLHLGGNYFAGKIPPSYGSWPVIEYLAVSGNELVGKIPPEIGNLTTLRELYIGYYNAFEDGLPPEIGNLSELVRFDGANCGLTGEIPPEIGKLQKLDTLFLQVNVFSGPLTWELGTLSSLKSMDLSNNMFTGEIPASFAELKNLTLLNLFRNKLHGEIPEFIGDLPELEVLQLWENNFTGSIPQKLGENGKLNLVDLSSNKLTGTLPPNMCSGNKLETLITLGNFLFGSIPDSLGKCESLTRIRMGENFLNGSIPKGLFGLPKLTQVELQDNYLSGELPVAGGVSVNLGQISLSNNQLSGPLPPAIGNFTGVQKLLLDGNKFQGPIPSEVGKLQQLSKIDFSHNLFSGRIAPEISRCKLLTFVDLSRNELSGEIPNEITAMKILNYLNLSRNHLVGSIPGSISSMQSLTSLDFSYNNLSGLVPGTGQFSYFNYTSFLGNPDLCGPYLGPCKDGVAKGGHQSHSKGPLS

In assay [4] the target is T3, BAM1 extracellular domain (BARELY ANY MERISTEM1 receptor kinase, residues 20 to 637) (Arabidopsis, UniProt O49545 20-637, biotin (by biotin ligase BirA)).
T3 construct: synthetic gene, codon-optimised for Trichoplusia ni; Expressed behind the Drosophila BiP secretion signal peptide in a modified pFastBac vector; the StrepII and 10x His tags were removed with TEV protease, the Avi-tag is not cleavable and was used to capture the protein on streptavidin; also called BAM1 ectodomain; biotinylated BAM1; source: Trichoplusia ni (strain Tnao38) cells, secreted, …
T3 sequence (looked up): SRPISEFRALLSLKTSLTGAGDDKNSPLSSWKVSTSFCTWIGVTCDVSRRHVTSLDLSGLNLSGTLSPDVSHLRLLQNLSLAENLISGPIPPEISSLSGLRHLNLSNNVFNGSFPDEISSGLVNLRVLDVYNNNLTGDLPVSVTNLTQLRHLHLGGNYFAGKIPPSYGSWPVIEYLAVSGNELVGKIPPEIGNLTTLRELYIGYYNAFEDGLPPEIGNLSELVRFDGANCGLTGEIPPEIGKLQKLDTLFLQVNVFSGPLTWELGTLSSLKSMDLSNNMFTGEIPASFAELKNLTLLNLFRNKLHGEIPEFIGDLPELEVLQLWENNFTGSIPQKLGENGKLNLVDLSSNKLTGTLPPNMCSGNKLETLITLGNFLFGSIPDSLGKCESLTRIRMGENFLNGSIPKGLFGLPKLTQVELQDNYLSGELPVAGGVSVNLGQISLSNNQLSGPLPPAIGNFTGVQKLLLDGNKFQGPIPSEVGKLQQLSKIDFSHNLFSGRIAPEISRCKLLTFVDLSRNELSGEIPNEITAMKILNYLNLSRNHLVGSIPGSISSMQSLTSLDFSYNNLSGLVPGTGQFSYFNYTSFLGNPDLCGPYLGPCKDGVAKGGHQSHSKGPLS
Briefly: grating-coupled interferometry (GCI); biotinylated BAM1 captured on streptavidin on a 4PCP WAVE chip (Creoptix WAVE); peptides as analyte, 1:2 dilution series from 10 µM; 25 °C; 20 mM citrate pH 5.0, 250 mM NaCl, 0.01% Tween 20; one-to-one binding model with mass transport. As to conditions: both partners purified.

Where two headings read alike, the source gives them in different places. Non-standard residues stand in square brackets, D forms with d. Residues, ends and D or L forms follow the SMILES beside them. No end group written: not given here. Hyp = O=C(O)[C@@H]1C[C@@H](O)CN1

`CC(C)C[C@H](NC(=O)[C@@H](N)CCCNC(=N)N)C(=O)N[C@H](C(=O)N1C[C@H](O)C[C@H]1C(=O)N[C@@H](CO)C(=O)NCC(=O)N1C[C@H](O)C[C@H]1C(=O)N[C@@H](CC(N)=O)C(=O)N1CCC[C@H]1C(=O)N[C@@H](CC(C)C)C(=O)N[C@@H](Cc1c[nH]cn1)C(=O)N[C@@H](CC(N)=O)C(=O)O)C(C)C` [CLE9, reference compound] (H-RLV[Hyp]SG[Hyp]NPLHN-OH; N-terminus and C-terminus assumed): in assay [1], the koff (in general, the first-order rate constant of dissociation) was found to be 0.024 s⁻¹ and the kon (commonly the second-order rate constant of association) was determined as 3.76e+07 M⁻¹ s⁻¹. Regarding “RLSPGGPDPQHH [CLE2p, synthesized root expressed CLE dodecapeptide, locus At4g18510]”, the “Upregulation of CYCD6 observed? (CYCLIND6;1p::GFP response)” value (shortened to “Upregulation of CYCD6 observed?”) in assay [2] is reported as “No”.

As for “RLSPGGPDPRHH [CLE1p, synthesized root expressed CLE dodecapeptide, locus At1g73165]”, in assay [2], the “Upregulation of CYCD6 observed?” value is given as “No”.

For the molecule RLVHTGPNPLHN [CLE16p], in assay [1], the dissociation rate constant (koff) worked out at 1.05 s⁻¹ and the kon turned out to be 1.51e+08 M⁻¹ s⁻¹. The like results for RLVPSGPNPLHH [CLE13p] were, in that order, 0.603 s⁻¹ and 5.88e+07 M⁻¹ s⁻¹. Take “RRVPSGPNPLHH [CLE12p, synthesized root expressed CLE dodecapeptide, locus At1g68795]”: the “Upregulation of CYCD6 observed?” value in assay [2] is “Yes”.

On to RTVPSGPDPLHH [CLV3, reference compound], for which, in assay [1], the koff was 0.549 s⁻¹ and the kon was 38200 M⁻¹ s⁻¹.

RLVPSGPNPLHN [CLE9]: the Kd (in general, the free concentration of one partner at which half of the binding sites on the other are occupied at equilibrium, for simple one-to-one binding) in assay [3] came to 0.6 nM.

B1: CLE13 dodecapeptide (CLE13p) (peptide, UniProt Q6NMF0 96-107, looked up)
peptide: RLVPSGPNPLHH
modifications: ends and bridges not checked
notes: CLE13p, the active dodecapeptide released from the CLE13 propeptide, Arabidopsis; source: synthetic peptide (>90% purity, Biomatik)
In assay [4], B1 had a Kd of 10 nM. In assay [3], RTVPSGPDPLHH [CLV3] had a Kd of 14000 nM.

B2: CLE16 dodecapeptide (CLE16p) (peptide, UniProt Q8S8M2 92-103, looked up)
peptide: RLVHTGPNPLHN
modifications: ends and bridges not checked
notes: CLE16p, the active dodecapeptide released from the CLE16 propeptide, Arabidopsis; source: synthetic peptide (>90% purity, Biomatik)
Molecule B2 gave an equilibrium dissociation constant (Kd) in assay [4] of 6.9 nM.

The values above are taken from article PMC7768756, “BAM1/2 receptor kinase signaling drives CLE peptide-mediated formative cell divisions in Arabidopsis roots” (Proceedings of the National Academy of Sciences of the …, 2020).
